From patent US20150183738A1, “3-N-BUTYL-1-ISOINDOLINONE AND USE THEREOF FOR PREVENTING OR TREATING CEREBRAL INFARCTION” (SUN YAT-SEN UNIVERSITY, priority 2012, published 2015)
Entries after “also recorded” stand apart in the source; their conditions may differ.

Columns and labels:
[1] = tested on: middle cerebral artery occlusion (MCAO) model in rats; test: Influence on cerebral infarct area/volume in MCAO models of rats (TTC staining, image J); assay type: in vivo, Male SD rats; details: for average infarct area: 30 mg/kg intraperitoneal injection 15 min after ischemia, 2 hrs of cerebral infarction and 24 hrs of reperfusion, TTC staining
Description: The middle cerebral artery occlusion (MCAO) model in rats is constructed to observe the anti-cerebral ischemia of 3-n-butyl-1-isoindolinone. The MCAO model is divided into three groups: 1) a negative control group, i. e., an vegetable oil, 3 mL/kg; 2) 3-n-butyl-1-isoindolinone group, 30 mg/kg; 3) a positive control group, i. e., 3-n-butylphthalide, 30 mg/kg. All the three groups are administered via intraperitoneal injection. Male SD rats having a weight of 250 g are selected and administered 15 min after the ischemia. After 2 hrs of cerebral infarction and 24 hrs of reperfusion, brain slices are prepared and conducted with TTC staining. Software image J is used to process staining results, calculate infarct areas, and compared with the results among different groups. It is known from the results that an average infarct area of the blank group is 24.430%, the average infarct area of the 3-n-butyl-1-isoindolinone group is 14.365%, and the average infarct area of the butylphthalide group is 14.402%. […] Male SD rats having a weight of between 250 and 270 g are selected. The Male SD rats are cultivated at a room temperature of 25° C. and are forbidden from feeding food except for water 12 hrs before the operation. The MCAO models are constructed in accordance with longa method or the like. 10% chloral hydrate is used to anesthetize the rats by intraperitoneal injection with a dose of 350 mg/kg. The rat is then upwardly fixed on a rat plate in a supine position and illuminated by an incandescent lamp for maintaining a body temperature thereof at 37±0.5° C. Rat hairs at the middle position of the neck are sheared, and the skin at such position is incised after disinfection. The common carotid artery (CCA), external carotid artery (ECA), and internal carotid artery (ICA) of the right side are carefully separated. The ECA is cut, and a cut end is straightened and aligned with the ICA, and a thread is then inserted therefrom. The thread is inserted for a depth of approximately 19.0±0.5 mm. After 2 hrs, a part of the thread is pulled out to realize reperfusion. The rat after suture ligation is then put back to the rat cage. After 24 hrs of reperfusion, brain slices are prepared for staining. The rats are divided into three groups with 10 in each group: 1) a blank control group, i. e., an vegetable oil, 3 mL/kg; 2) 3-n-butyl-1-isoindolinone group, 30 mg/kg; 3) a positive control group, i. e., 3-n-butylphthalide, 30 mg/kg. All the three groups are administered with drugs via intraperitoneal injection 15 min after modeling. After 24 hrs of reperfusion, brains are collected from killed rats and placed in Petri dishes. The brain tissues are quickly collected and placed in a refrigerator at a temperature of −20° C. for 20 min and taken out. The olfactory bulb, the cerebellum, and the lower brainstem are removed, and the remaining brain is then cut for five times with an interval of 2 mm, whereby six consecutive coronal brain slices are formed. 2% TTC dye solution is added to the Petri dishes to submerge the brain slice by the solution. The Petri dishes are placed at the temperature of 37° C. and incubated in the absence of light for between 25 and 30 min during which the brain slices are turned over once every 5 min. After TTC staining of the brain slices, a normal tissue thereof presents red and an ischemic region presents white. When the TTC staining is finished, the TTC dye solution is removed out of the Petri dishes by syringes. Formalin solution with an amount enabling to submerge the brain slices is then added, and the Petri dishes are placed in the dark. After 24 hrs, solidified brain slices are taken out and arranged in order in a blue background to take pictures. […]

[2] = tested on: middle cerebral artery occlusion (MCAO) model in rats; test: Neurobehavioral assessment (Zea Longa) in MCAO models of rats; assay type: in vivo, Male SD rats; details: score after 24 hrs of reperfusion; for alleviation of the neurobehavior compared with the blank control group (ANOVA): 30 mg/kg i.p.
Description: Male SD rats having a weight of between 250 and 270 g are selected. The Male SD rats are cultivated at a room temperature of 25° C. and are forbidden from feeding food except for water 12 hrs before the operation. The MCAO models are constructed in accordance with longa method or the like. 10% chloral hydrate is used to anesthetize the rats by intraperitoneal injection with a dose of 350 mg/kg. The rat is then upwardly fixed on a rat plate in a supine position and illuminated by an incandescent lamp for maintaining a body temperature thereof at 37±0.5° C. Rat hairs at the middle position of the neck are sheared, and the skin at such position is incised after disinfection. The common carotid artery (CCA), external carotid artery (ECA), and internal carotid artery (ICA) of the right side are carefully separated. The ECA is cut, and a cut end is straightened and aligned with the ICA, and a thread is then inserted therefrom. The thread is inserted for a depth of approximately 19.0±0.5 mm. After 2 hrs, a part of the thread is pulled out to realize reperfusion. The rat after suture ligation is then put back to the rat cage. After 24 hrs of reperfusion, brain slices are prepared for staining.
The rats are divided into three groups with 10 in each group: 1) a blank control group, i. e., an vegetable oil, 3 mL/kg; 2) 3-n-butyl-1-isoindolinone group, 30 mg/kg; 3) a positive control group, i. e., 3-n-butylphthalide, 30 mg/kg. All the three groups are administered with drugs via intraperitoneal injection 15 min after modeling.
According to Zea Longa assessment, ethology observation is conducted after 2 hrs of modeling and 24 hrs of reperfusion and before killing the rats. The tail of the rat is seized to lift the rat about 1 foot off the ground to observe the condition of the left forelimb. […]
After 24 hrs of reperfusion of the MCAO models of the rats, the neurobehavioral assessment is conducted on the rats again, and the results are recorded.

[3] = background statement; oily liquid; cited from earlier work
[4] = 30 mg/kg i.p., 2 hrs MCAO, 24 hrs reperfusion

| Structure (SMILES) | infarct volume reduced compared with the solvent control group [1, 4] [%] | reduced infarct area compared with the blank control group (one-factor ANOVA) [1, 4] | average infarct area [1] [%] | reduced infarct area, difference compared with butylphthalide (one-factor ANOVA) ([1]; both 30 mg/kg i.p., 2 hrs MCAO, 24 hrs reperfusion) | alleviation of the neurobehavior compared with the blank control group (ANOVA) [2] | alleviation of the neurobehavior compared with the butylphthalide group (ANOVA) ([2]; both 30 mg/kg i.p.) | water solubility [3] |
| --- | --- | --- | --- | --- | --- | --- | --- |
| CCCCC1NC(=O)c2ccccc21 (stereo not shown) [3-n-butyl-1-isoindolinone] | 41.199 | significant difference (P<0.001) | 14.365 | no significant statistical difference; also recorded: no statistical significance (P=0.989) | significant difference (P=0.003<0.01) | no significant difference (P=0.384>0.05) | – |
| CCCCC1OC(=O)c2ccccc21 (stereo not shown) [butylphthalide, 3-n-butylphthalide, reference compound] | – | significant difference (P<0.01) | 14.402 | – | significant difference | – | water insoluble |
